Literature values, collected in patent US20020137787A1, “Prevention or treatment of complications related to non-insulin dependent diabetes mellitus or type 2 diabetes mellitus” (priority 2001, published 2002).
Where two headings read alike, the source gives them in different places.

Tests used:
[1] = patients taking Clozapine

Structure (SMILES): CNCCC(Oc1ccc(C(F)(F)F)cc1)c1ccccc1 (stereo not drawn) [Fluoxetine]
- effect on body weight (overweight depressed patients): weight loss
- effects on blood glucose and lipid profiles (reported): positive effects

Structure (SMILES): CN1CCN(C2=Nc3cc(Cl)ccc3Nc3ccccc32)CC1 [Clozapine]
- effect on body weight [1]: increased weight
